One data set addresses T1, TLR4 (Homo sapiens, UniProt O00206).
T1 construct: endogenous in cells; host or cells: THP-1 monocytes and PBMCs
The data set can be described thus: TLR4 ligand induced TNF-α secretion in THP-1 cells and PBMCs (ELISA). The class given is cell-based. The conditions noted are these: TLR4 ligand 750 ng/ml, 1 hr pre-treatment, 24 hrs. As to the method: The present invention has checked the effect of various TLR ligands on THP-1 monocytes, PBMCs and their ability to activate and release TNF-α. For this purpose about 9 TLR ligands were used. These ligands were obtained from Apotech Cat; APO-54N-018-K100 and assayed for TNF-α release in culture supernatants.
THP-1 and PBMCs (2×10^5 cells/well) were plated in 96-well plate. The cells were pretreated with RSCL-0409 in DMSO 1 hr prior to TLR ligand treatment. Following 1 hr pre-treatment, the cells were treated with TLR ligands [TLR2, TLR5 and TLR6-75 ng/ml each, TLR3-75 μg/ml, TLR4-750 ng/ml, TLR7, TLR8 and TLR9-7.5 μg/ml) for 24 hrs. The culture supernatant were collected after the stipulated time and assayed for TNF-α release using a Duoset Enzyme-Linked ImmunoSorbent Assay (ELISA) detection Kit (R&D systems, MN 55413, USA; Cat: DY-210 E). Simultaneously supernatants were collected from cells treated with ligands without pre-treatment with RSCL-0409 and only RSCL-0409 without ligand treatment.
On the technique in general: In an ELISA, binding on a coated surface is turned into a signal by an enzyme label.

Data set [1] in a line: Cell viability in pre-screen (Table 1). The class given is cell-based.
In the next data set the test system is TIRAP and MyD88. The data set can be described thus: Protein levels of TIRAP and MyD88 in LPS stimulated THP-1 cells (immunoblot). The class given is cell-based, human. Particulars: THP-1, LPS 250 ng/ml, 1 hr pre-treatment. As to the method:
Further confirmation was obtained at the protein level. Serum-starved THP-1 cells were stimulated with LPS (250 ng/ml) for the indicated time in the presence and absence of RSCL-0409. RSCL-0409 treatment was 1 hr prior to LPS treatment. Immunoblotting of total protein was carried out as before to determine protein levels of TIRAP and MyD88.
A general note: A western blot detects proteins with antibodies after separation by electrophoresis.

T1 sequence (O00206 24-839): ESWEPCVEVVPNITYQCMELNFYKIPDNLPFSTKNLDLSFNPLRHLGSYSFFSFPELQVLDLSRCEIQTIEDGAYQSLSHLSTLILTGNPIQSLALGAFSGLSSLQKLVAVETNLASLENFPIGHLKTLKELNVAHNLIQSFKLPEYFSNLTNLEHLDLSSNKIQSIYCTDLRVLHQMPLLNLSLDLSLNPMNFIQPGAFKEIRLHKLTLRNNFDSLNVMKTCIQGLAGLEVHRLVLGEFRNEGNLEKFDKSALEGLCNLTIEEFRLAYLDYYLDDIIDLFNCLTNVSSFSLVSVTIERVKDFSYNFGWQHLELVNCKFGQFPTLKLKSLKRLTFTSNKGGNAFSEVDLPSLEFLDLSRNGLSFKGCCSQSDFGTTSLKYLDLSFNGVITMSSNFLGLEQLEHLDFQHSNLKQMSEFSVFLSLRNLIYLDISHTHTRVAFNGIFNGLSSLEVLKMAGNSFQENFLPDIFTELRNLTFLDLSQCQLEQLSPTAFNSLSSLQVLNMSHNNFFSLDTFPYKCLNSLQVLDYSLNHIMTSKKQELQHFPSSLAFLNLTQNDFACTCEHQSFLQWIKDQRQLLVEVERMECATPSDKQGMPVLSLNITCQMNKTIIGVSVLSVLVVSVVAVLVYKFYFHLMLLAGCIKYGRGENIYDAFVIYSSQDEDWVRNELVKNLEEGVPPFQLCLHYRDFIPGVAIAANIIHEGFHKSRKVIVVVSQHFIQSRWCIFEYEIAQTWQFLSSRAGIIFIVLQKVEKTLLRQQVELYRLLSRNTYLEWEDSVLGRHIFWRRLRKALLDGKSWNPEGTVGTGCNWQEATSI
T1 sequence (Q9Y6Y9 17-160 partner limits assumed): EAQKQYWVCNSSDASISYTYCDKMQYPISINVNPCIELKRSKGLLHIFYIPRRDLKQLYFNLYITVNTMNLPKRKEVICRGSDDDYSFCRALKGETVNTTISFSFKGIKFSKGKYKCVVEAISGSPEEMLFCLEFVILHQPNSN

For `COc1ccc(OC2OC3COC(c4ccccc4)OC3C(OC3OC(COC(=O)CCC(C)=O)C(OC(=O)CCl)C(OC(C)=O)C3OC(C)=O)C2NC(=O)C(Cl)(Cl)Cl)cc1` [RSCL-0409, p-Methoxy phenyl-O-(2,3-di-O-acetyl-4-O-chloroacetyl-6-O-levulinoyl-β-D-glucopyranosyl)-(1-3)-2-deoxy-2-trichloroacetamido-4,6-O-benzylidene-α-D-glucopyranoside], the entries for the “inhibition of TNF-α secretion” value at TLR4 (PBMCs) and at TLR4 (THP-1 cells) were about 34% and about 100%, respectively. Further, the “% Viability” value in data set [1] (1 uM) came out at 108%; in data set [1] (10 uM), 112%; in data set [1] (50 uM), 114%; in data set [1] (100 uM), 113%. The “protein levels of TIRAP and MyD88” value in the data set on TIRAP and MyD88 was “Down regulation of TIRAP and also MyD88 at protein levels”.

For the origin of these results see patent publication US20090215710A1, “CARBOHYDRATE BASED TOLL-LIKE RECEPTOR (TLR) ANTAGONISTS” (RELIANCE LIFE SCIENCES PVT. LTD., priority 2007, published 2009).
